Source: US9381210B2 (Wisconsin Alumni Research Foundation, priority 2013, dated 2016)

Key:
CML iCD34+ cells = assay: Adhesion assay to fibronectin; assay type: cell-based, human; details: 5 μM imatinib, 24 hours
iCML CD34+ cells = details: CFSE cultures, 5 μM imatinib, four days, annexin V
Protocol: Differentiated cells were labeled with 1 μM carboxy-fluorescein diacetate succinimidyl diester (CFSE; Molecular Probes, Eugene, Oreg.) as previously described (Copland et al., 2006; Holtz et al., 2002). These cells were then incubated overnight in CSSM medium supplemented with growth factors to allow excess unbound dye to leak out of the cells. Cells cultured in the presence of 10 μg/ml mitomycin C (Sigma Aldrich) were used to establish the CFSEmax (undivided cell population). The next day, CFSE^bright cells were sorted by FACArias to exclude non-labeled and CFSE^dim populations. […] At the end of the culture period, cells were stained with CD34-APC and 7AAD for flow cytometry analysis. The percentage of cells in each generation was determined using FlowJo software (Tree Star, Ashland, Oreg.), with the position of the parent generation set on the basis of the fluorescence profile of undivided cells.

CML sCD34+ cells [1] = assay: Long-term culture initiating cell assay (LTC-IC); assay type: cell-based, human; details: imatinib
Protocol: Sorted iPSC-derived lin^−CD34^+CD45^+ cells were plated in a six-well plate at 10^4 cells/well containing 5-7 day-old cultures of murine 1×10^5 M2-10B4 and OP9 stromal cells (1:1 ratio mix) in LTC-IC medium consisting of SFM supplemented with 10 μM hydrocortisone, 50 ng/ml SCF, 5 ng/ml IL3, and 50 ng/ml IL6. Cultures were maintained at 37° C. in a humidified atmosphere with 5% CO2, and fed at weekly intervals. After five weeks, cells were harvested and analyzed for CFC potential as described above. LTC-IC assay for somatic lin^−CD34^+CD45^+ cells was performed using M2-10B4 cells exactly as described in the Stem Cell Technologies protocol to be found online at stemcell.com/en/Technical-Resources/db5a9/28412_Itc_ic-H.aspx.

CML sCD34+ cells [2] = assay: Hematopoietic colony-forming assay; assay type: cell-based, human
Source text: CD43^+ hematopoietic cells were collected from differentiated iPSC cultures using MACS and labeled with CD235a/CD41a FITC, CD45 APC and CD38 PE (BD Pharmingen). Lin^−CD45^+CD38^+ and lin^−CD45^+CD38^− subpopulations were obtained by fluorescence-activated cell sorter (FACSAria) (Vodyanik et al., 2006). Bone marrow mononuclear cells from CML patients in the chronic phase were purchased commercially (AllCells or Applied StemCells), or obtained from the patients at the University of Wisconsin Hospital and Clinics (Madison, Wis.) with approval from the University of Wisconsin Institutional Review Board. Donors had previously signed an Institutional Review Board-approved consent. Bone marrow cells from healthy donors were obtained from Cincinnati Children's Hospital Medical Center (CCHMC). Mononuclear cells were labeled with the lineage-specific markers CD2, CD3, CD14, CD15, CD16, CD19, CD20, CD24, CD41a, CD56, CD66b, and Glycophorin A (FITC-conjugated antibodies), CD34 APC (BD Pharmingen) and DAPI to exclude dead cells. Live lin^−CD34^+ cells were isolated using FACSAria (BD).
Hematopoietic clonogenic assays were performed using serum-containing StemMACS semisolid clonogenic medium (Miltenyi Biotec, CA). Colonies were scored after fourteen to 21 days of incubation.

OLFM4 [3] = assay: OLFM4 expression by QPCR in CML iCD34+ cells; assay type: cell-based, human; details: CML iCD34+ cells treated with imatinib
Protocol: iPSCs-derived lin^−CD34^+CD45^+ cells and somatic CML bone marrow lin^−CD34^+ were transfected with 100 nM of either siOLFM4 or scrambled (AllStars Neg. siRNA AF 488) using HiPerfect transfection reagent according to the manufacturer's protocol (all from Qiagen). The transfection efficiency was 50-60% as evaluated by using control ALLStars Neg. siRNA AF488. As determined by QPCR performed 24 hours after transfection, the silencing efficiency was 70-75% (FIG. 9D).
RNA was isolated from the cell subpopulations using PureLink RNA mini kit (Life Technologies). cDNA synthesis was carried out using Advantage RT-for-PCR kit (Clontech). Quantitative real-time PCR analysis was performed using Gand PlatinumSYBR Green qPCR SuperMix-UDG kit (Life Technologies) and self-designed specific primers for BCR-ABL (forward […] (SEQ ID NO:1); reverse […] (SEQ ID NO:2)), OLFM4 (forward […] (SEQ ID NO:3); reverse […] (SEQ ID NO:4)) and GAPDH (forward […] (SEQ ID NO:5); reverse […] (SEQ ID NO:6)).
The reactions were run on a Mastercyclerep Realplex™ thermal cycler (Eppendorf) and expression levels were calculated by minimal cycle threshold values (Ct) normalized to the reference expression of GAPDH in each sample (Pfaffl, 2001). When specified, K562 was used as a reference. All QPCR products were analyzed on 1.2% agarose gels to confirm the specificity of detection.

[4] = test system: lin-CD34+ cells from CML bone marrow; assay: Xenograft of siRNA-treated CML lin-CD34+ cells; assay type: in vivo, Nod scid gamma (NSG) mice; details: four mice, 16 weeks; two out of four control siRNA animals engrafted
Protocol: Sorted lin^−CD34^+ cells from CML bone marrow were transduced with either AllStars Negative control or OLFM4 siRNA for 24 hours. Cells were then washed and transplanted into Nod scid gamma (NSG) mice at 5-10×10^3 cells. Four mice were injected with cells treated with control siRNA and four mice were injected with OLFM4 siRNA. The mice were then analyzed at 16 weeks using flow cytometry for live human CD45^+ cells in bone marrow, liver, spleen, and peripheral blood.
The cultured cells were labeled with human CD45, mouse CD45 and DAPI and sorted for live human CD45^+ mouse CD45^− cells. The sorted cells were then plated in methyl cellulose media for hematopoietic progenitor assay and RNA extracted for PCR.

sCD34+ cells = assay: Cell proliferation assay; assay type: cell-based, human; details: serum-free cultures without cytokines, OLFM4 300 ng/ml
Protocol: Total lin^−CD34^+, lin^−CD34^+CD38^− or lin^−CD34^+CD38^+ were plated in triplicate in 96-well plate at 10^3 cells/well. […] When specified, the 300 ng/ml OLFM4 (Acro Biosystem) or the following growth factors were added: 10 ng/ml IL3, 100 ng/ml SCF, 100 ng/ml Flt3L, 100 ng/ml IL6 and 200 ng/ml GM-CSF. Viable cell yields were determined by counting trypan blue excluding viable cells using a hemocytometer.

OLFM4 [5] = assay: OLFM4 expression by RT-PCR/QPCR in sCD34+ cells; assay type: cell-based, human; details: sCD34+ cells treated with G-CSF (10 ng/ml, 24 hours)

## Cc1ccc(NC(=O)c2ccc(CN3CCN(C)CC3)cc2)cc1Nc1nccc(-c2cccnc2)n1 [imatinib, 4-[(4-methylpiperazin-1-yl)methyl]-N-(4-methyl-3-{[4-(pyridin-3-yl)pyrimidin-2-yl]amino}phenyl)benzamide]
CML iCD34+ cells
  adhesion to fibronectin: partially restored
iCML CD34+ cells
  apoptosis in more mature iCD34dim and iCD34- cells: substantial increase in apoptosis
  apoptosis in most primitive iCD34bright cells: resistant to imatinib-induced apoptosis
CML sCD34+ cells [1]
  LTC-ICs: little effect
CML sCD34+ cells [2]; parental lin-CD34+ BM cells of the CML patient, 5 μM imatinib, 24 hours pretreatment
  response of parental bone marrow cells to imatinib (myeloid CFC potential): sensitivity
OLFM4 [3]
  OLFM4 expression (QPCR): augmentation of OLFM4 expression

## OLFM4: OLFM4 protein (Acro Biosystem) added to medium at 300 ng/ml; secreted glycoprotein
[4]
  animals showing engraftment (live human CD45+ cells): none
CML sCD34+ cells [2]; CML sCD34+ cells, OLFM4 protein 300 ng/ml
  reversal of the knockdown effect on CFCs by OLFM4 pretreatment: can be reversed
sCD34+ cells
  proliferation of sCD34+ cells: potentiates expansion
sCD34+ cells; listed as OLFM4 protein
  proliferation of sCD34+ cells: enhanced proliferation

B1: G-CSF: cytokine used at 10 ng/ml to induce OLFM4 expression in sCD34+ cells (protein, UniProt P09919 31-207, looked up)
Granulocyte …: TPLGPASSLPQSFLLKCLEQVRKIQGDGAALQEKLVSECATYKLCHPEELVLLGHSLGIPWAPLSSCPSQALQLAGCLSQLHSGLFLYQGLLQALEGISPELGPTLDTLQLDVADFATTIWQQMEELGMAPALQPTQGAMPAFASAFQRRAGGVLVASHLQSFLEVSYRVLRHLAQP
OLFM4 [5]
  OLFM4 expression: rapidly induced
